Assay results from US10258602B2 (Ocera Therapeutics, Inc., priority 2007, dated 2019).

Test system: rat stomach fundus strips
Protocol: Fundus strips (approximately 0.4×1 cm) were cut from the stomach of adult male Wistar rats parallel to the circular muscle fibers. They were placed between two platinum ring electrodes, 1 cm apart (Radnoti, ADInstruments, USA) in 10 ml tissue baths containing Krebs solution bubbled with 5% CO2 in O2 and maintained at 37° C. Tissues were suspended under 1.5 g resting tension. Changes of tension were measured isometrically with force transducers and recorded with a PowerLab 8/30 data acquisition system (ADInstruments, USA). Tissues were allowed to equilibrate for 60 min during which time bath solutions were changed every 15 min.
EFS was achieved by applying 0.5 ms pulses, 5 Hz frequency, at a maximally effective voltage of 70 V. EFS was applied for 30 sec at 3 min intervals for a 30 min initial period. This initial period was separated by a 5 min interval with wash out of the bath solution. Then, a second period of stimulation was started. […] Responses to the agents were measured and expressed as % of the mean of three or four pre-drug responses to EFS. All compounds were dissolved at 1 mM in distilled water or MeOH, as stock solutions.

## CCCCCCCC(=O)OC[C@H](NC(=O)[C@H](CO)NC(=O)CN)C(=O)N[C@@H](Cc1ccccc1)C(=O)N[C@@H](CC(C)C)C(=O)N[C@@H](CO)C(=O)N1CCC[C@H]1C(=O)N[C@@H](CCC(=O)O)C(=O)N[C@@H](Cc1c[nH]cn1)C(=O)N[C@@H](CCC(N)=O)C(=O)N[C@@H](CCCNC(=N)N)C(=O)N[C@H](C(=O)N[C@@H](CCC(N)=O)C(=O)N[C@@H](CCC(N)=O)C(=O)N[C@@H](CCCNC(=N)N)C(=O)N[C@@H](CCCCN)C(=O)N[C@@H](CCC(=O)O)C(=O)N[C@@H](CO)C(=O)N[C@@H](CCCCN)C(=O)N[C@@H](CCCCN)C(=O)N1CCC[C@H]1C(=O)N1CCC[C@H]1C(=O)N[C@@H](C)C(=O)N[C@@H](CCCCN)C(=O)N[C@@H](CC(C)C)C(=O)N[C@@H](CCC(N)=O)C(=O)N1CCC[C@H]1C(=O)N[C@@H](CCCNC(=N)N)C(=O)O)C(C)C [Ghrelin]
  EC50: 5 nM
